Measurements from PubChem BioAssay (NCI).
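Cultured in 96-well plates, cells were exposed to test compound for 48 hours across five concentrations. At the TGI there is no net growth.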

Tests used:
Experiment in all cases: NCI-60 cell line screen, 48 h
786-0 renal = test system: 786-0 renal
A498 renal = test system: A498 renal
A549 NSCLC = test system: A549 NSCLC
ACHN renal = test system: ACHN renal
CAKI-1 renal = test system: CAKI-1 renal
CCRF-CEM leukemia = test system: CCRF-CEM leukemia
COLO 205 colon = test system: COLO 205 colon
DLD-1 colon = test system: DLD-1 colon
DMS 114 small cell lung = test system: DMS 114 small cell lung
DMS 273 small cell lung = test system: DMS 273 small cell lung
EKVX NSCLC = test system: EKVX NSCLC
HCC-2998 colon = test system: HCC-2998 colon
HCT-116 colon = test system: HCT-116 colon
HCT-15 colon = test system: HCT-15 colon
HL-60(TB) leukemia = test system: HL-60(TB) leukemia
HOP-18 NSCLC = test system: HOP-18 NSCLC
HOP-62 NSCLC = test system: HOP-62 NSCLC
HOP-92 NSCLC = test system: HOP-92 NSCLC
HT29 colon = test system: HT29 colon
IGROV1 ovarian = test system: IGROV1 ovarian
K-562 leukemia = test system: K-562 leukemia
KM12 colon = test system: KM12 colon
KM20L2 colon = test system: KM20L2 colon
LOX IMVI melanoma = test system: LOX IMVI melanoma
M14 melanoma = test system: M14 melanoma
M19-MEL melanoma = test system: M19-MEL melanoma
MALME-3M melanoma = test system: MALME-3M melanoma
MOLT-4 leukemia = test system: MOLT-4 leukemia
NCI-H226 lung = test system: NCI-H226 lung
NCI-H23 lung = test system: NCI-H23 lung
NCI-H460 lung = test system: NCI-H460 lung
NCI-H522 lung = test system: NCI-H522 lung
OVCAR-3 ovarian = test system: OVCAR-3 ovarian
OVCAR-4 ovarian = test system: OVCAR-4 ovarian
OVCAR-5 ovarian = test system: OVCAR-5 ovarian
OVCAR-8 ovarian = test system: OVCAR-8 ovarian
RPMI-8226 leukemia = test system: RPMI-8226 leukemia
RXF-631 renal = test system: RXF-631 renal
SF-268 CNS = test system: SF-268 CNS
SF-295 CNS = test system: SF-295 CNS
SF-539 CNS = test system: SF-539 CNS
SK-MEL-2 melanoma = test system: SK-MEL-2 melanoma
SK-MEL-28 melanoma = test system: SK-MEL-28 melanoma
SK-MEL-5 melanoma = test system: SK-MEL-5 melanoma
SK-OV-3 ovarian = test system: SK-OV-3 ovarian
SN12C renal = test system: SN12C renal
SNB-19 CNS = test system: SNB-19 CNS
SNB-75 CNS = test system: SNB-75 CNS
SNB-78 CNS = test system: SNB-78 CNS
SR leukemia = test system: SR leukemia
SW-620 colon = test system: SW-620 colon
TK-10 renal = test system: TK-10 renal
U251 CNS = test system: U251 CNS
UACC-257 melanoma = test system: UACC-257 melanoma
UACC-62 melanoma = test system: UACC-62 melanoma
UO-31 renal = test system: UO-31 renal
XF 498 CNS = test system: XF 498 CNS
LXFL 529 NSCLC = test system: LXFL 529 NSCLC
RXF 393 renal = test system: RXF 393 renal

CCCC(O)[C@@H](O)c1ccc2c(c1O)C(=O)c1c(OC)cccc1C2=O (stereo partly drawn)
TGI (786-0 renal): > 100 µM
TGI (A498 renal): > 100 µM
TGI (A549 NSCLC): > 100 µM
TGI (ACHN renal): > 100 µM
TGI (CAKI-1 renal): > 100 µM
TGI (CCRF-CEM leukemia): 85.7 µM
TGI (COLO 205 colon): 44.8 µM
TGI (DLD-1 colon): > 100 µM
TGI (DMS 114 small cell lung): 61.9 µM
TGI (DMS 273 small cell lung): > 100 µM
TGI (EKVX NSCLC): > 100 µM
TGI (HCC-2998 colon): 68.1 µM
TGI (HCT-116 colon): > 100 µM
TGI (HCT-15 colon): 82.5 µM
TGI (HL-60(TB) leukemia): 42.9 µM
TGI (HOP-18 NSCLC): > 100 µM
TGI (HOP-62 NSCLC): > 100 µM
TGI (HOP-92 NSCLC): > 100 µM
TGI (HT29 colon): > 100 µM
TGI (IGROV1 ovarian): > 100 µM
TGI (K-562 leukemia): > 100 µM
TGI (KM12 colon): > 100 µM
TGI (KM20L2 colon): > 100 µM
TGI (LOX IMVI melanoma): 80.4 µM
TGI (M14 melanoma): 69.1 µM
TGI (M19-MEL melanoma): 61.5 µM
TGI (MALME-3M melanoma): 90.3 µM
TGI (MOLT-4 leukemia): 69.2 µM
TGI (NCI-H226 lung): > 100 µM
TGI (NCI-H23 lung): > 100 µM
TGI (NCI-H460 lung): > 100 µM
TGI (NCI-H522 lung): 42.1 µM
TGI (OVCAR-3 ovarian): > 100 µM
TGI (OVCAR-4 ovarian): > 100 µM
TGI (OVCAR-5 ovarian): > 100 µM
TGI (OVCAR-8 ovarian): > 100 µM
TGI (RPMI-8226 leukemia): 38.2 µM
TGI (RXF-631 renal): 75.4 µM
TGI (SF-268 CNS): > 100 µM
TGI (SF-295 CNS): > 100 µM
TGI (SF-539 CNS): 58.8 µM
TGI (SK-MEL-2 melanoma): > 100 µM
TGI (SK-MEL-28 melanoma): > 100 µM
TGI (SK-MEL-5 melanoma): 31.2 µM
TGI (SK-OV-3 ovarian): > 100 µM
TGI (SN12C renal): > 100 µM
TGI (SNB-19 CNS): > 100 µM
TGI (SNB-75 CNS): > 100 µM
TGI (SNB-78 CNS): 91.1 µM
TGI (SR leukemia): 66.6 µM
TGI (SW-620 colon): > 100 µM
TGI (TK-10 renal): > 100 µM
TGI (U251 CNS): > 100 µM
TGI (UACC-257 melanoma): 68.8 µM
TGI (UACC-62 melanoma): 61.8 µM
TGI (UO-31 renal): 91.2 µM
TGI (XF 498 CNS): 36.3 µM

O=P(O)(OCC(O)O)OCC(O)O
TGI (786-0 renal): > 100 µM
TGI (A498 renal): > 100 µM
TGI (A549 NSCLC): > 100 µM
TGI (ACHN renal): > 100 µM
TGI (CCRF-CEM leukemia): > 100 µM
TGI (COLO 205 colon): > 100 µM
TGI (DLD-1 colon): > 100 µM
TGI (DMS 114 small cell lung): > 100 µM
TGI (DMS 273 small cell lung): > 100 µM
TGI (EKVX NSCLC): > 100 µM
TGI (HCC-2998 colon): > 100 µM
TGI (HCT-116 colon): > 100 µM
TGI (HL-60(TB) leukemia): > 100 µM
TGI (HOP-18 NSCLC): > 100 µM
TGI (HOP-62 NSCLC): > 100 µM
TGI (HOP-92 NSCLC): > 100 µM
TGI (HT29 colon): > 100 µM
TGI (IGROV1 ovarian): > 100 µM
TGI (K-562 leukemia): > 100 µM
TGI (KM12 colon): > 100 µM
TGI (KM20L2 colon): > 100 µM
TGI (LOX IMVI melanoma): > 100 µM
TGI (LXFL 529 NSCLC): > 100 µM
TGI (M19-MEL melanoma): > 100 µM
TGI (MALME-3M melanoma): > 100 µM
TGI (MOLT-4 leukemia): > 100 µM
TGI (NCI-H23 lung): > 100 µM
TGI (NCI-H460 lung): > 100 µM
TGI (NCI-H522 lung): > 100 µM
TGI (OVCAR-3 ovarian): > 100 µM
TGI (OVCAR-5 ovarian): > 100 µM
TGI (OVCAR-8 ovarian): > 100 µM
TGI (RPMI-8226 leukemia): > 100 µM
TGI (RXF 393 renal): > 100 µM
TGI (RXF-631 renal): > 100 µM
TGI (SF-268 CNS): > 100 µM
TGI (SF-295 CNS): > 100 µM
TGI (SF-539 CNS): > 100 µM
TGI (SK-MEL-2 melanoma): > 100 µM
TGI (SK-MEL-28 melanoma): > 100 µM
TGI (SK-MEL-5 melanoma): > 100 µM
TGI (SK-OV-3 ovarian): > 100 µM
TGI (SNB-19 CNS): > 100 µM
TGI (SNB-75 CNS): > 100 µM
TGI (SNB-78 CNS): > 100 µM
TGI (SW-620 colon): > 100 µM
TGI (TK-10 renal): > 100 µM
TGI (U251 CNS): > 100 µM
TGI (UACC-257 melanoma): > 100 µM
TGI (UO-31 renal): > 100 µM
TGI (XF 498 CNS): > 100 µM
